Data from ChEMBL document CHEMBL2073920 (Eur J Pharmacol, 1998).

Tests used:
[1] = target: T1, ATP-dependent translocase ABCB1 (Homo sapiens, UniProt P08183); test: TP_TRANSPORTER: inhibition of Rhodamine 123 transepithelial transport (basal to apical)(R123: 5 uM, Midazolam: 100 uM) in Caco-2 cells; type: functional, cell-based; details: caco-2, 100 µM
[2] = target: T1, ATP-dependent translocase ABCB1; test: TP_TRANSPORTER: transepithelial transport (basal to apical) in Caco-2 cells; type: functional, cell-based

T1 sequence (P08183 whole entry): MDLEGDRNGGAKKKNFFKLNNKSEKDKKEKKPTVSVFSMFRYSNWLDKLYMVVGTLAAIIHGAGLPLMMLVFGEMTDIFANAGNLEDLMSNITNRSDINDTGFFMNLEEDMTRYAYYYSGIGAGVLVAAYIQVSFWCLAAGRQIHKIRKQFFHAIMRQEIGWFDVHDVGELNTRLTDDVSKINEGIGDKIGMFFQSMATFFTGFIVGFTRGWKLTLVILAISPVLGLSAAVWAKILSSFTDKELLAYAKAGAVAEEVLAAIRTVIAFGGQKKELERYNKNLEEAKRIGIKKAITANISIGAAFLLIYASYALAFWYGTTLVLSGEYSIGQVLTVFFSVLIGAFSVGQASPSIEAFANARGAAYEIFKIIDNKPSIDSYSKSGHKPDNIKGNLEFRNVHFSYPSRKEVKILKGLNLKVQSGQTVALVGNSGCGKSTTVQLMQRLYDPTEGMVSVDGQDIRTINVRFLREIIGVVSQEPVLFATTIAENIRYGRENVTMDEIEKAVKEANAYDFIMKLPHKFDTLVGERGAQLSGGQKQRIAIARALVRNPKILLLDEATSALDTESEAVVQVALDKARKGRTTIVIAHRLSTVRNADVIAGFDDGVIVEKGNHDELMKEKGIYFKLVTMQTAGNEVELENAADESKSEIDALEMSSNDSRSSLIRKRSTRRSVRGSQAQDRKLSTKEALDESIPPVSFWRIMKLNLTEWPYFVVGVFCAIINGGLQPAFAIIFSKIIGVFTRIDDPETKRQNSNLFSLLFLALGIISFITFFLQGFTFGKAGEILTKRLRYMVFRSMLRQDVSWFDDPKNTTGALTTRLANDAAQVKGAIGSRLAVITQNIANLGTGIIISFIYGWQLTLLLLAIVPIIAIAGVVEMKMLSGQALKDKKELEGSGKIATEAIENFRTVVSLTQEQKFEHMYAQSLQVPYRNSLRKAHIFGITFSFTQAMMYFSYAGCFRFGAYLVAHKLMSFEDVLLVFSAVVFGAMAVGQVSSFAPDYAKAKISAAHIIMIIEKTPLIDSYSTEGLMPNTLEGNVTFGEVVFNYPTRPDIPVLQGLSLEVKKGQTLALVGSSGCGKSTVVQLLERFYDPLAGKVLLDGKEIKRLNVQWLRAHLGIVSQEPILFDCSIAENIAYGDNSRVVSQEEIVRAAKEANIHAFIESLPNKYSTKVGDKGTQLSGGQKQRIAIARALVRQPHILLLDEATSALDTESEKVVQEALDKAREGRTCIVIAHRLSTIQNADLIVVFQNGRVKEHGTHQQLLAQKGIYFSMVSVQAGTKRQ

**Q.** With `Cc1ncc2n1-c1ccc(Cl)cc1C(c1ccccc1F)=NC2` [MIDAZOLAM] as the compound, how does the Activity [1] read?
**A.** inhibitor [(at a rough estimate) 55 % of control]

**Q.** And the Activity [2]?
**A.** substrate [+]
